Reference: patent US20170166598A1, “HETEROARYL COMPOUNDS FOR KINASE INHIBITION” (ARIAD PHARMACEUTICALS, INC., priority 2014, published 2017)

Experiments:
Type in all cases: cell-based
[1] = target: T1, human EGFR L858R and T790M double mutation (Homo sapiens, UniProt P00533, L858R/T790M); test: Ba/F3-EGFR L858R/T790M cell anti-proliferative assay (CellTiter 96 MTS, 72 h); conditions: Ba/F3-EGFR L858R/T790M cells
T1 construct: expressed in transfected cells; host or cells: Ba/F3 (murine pro-B) cells transduced with lentivirus from pLVX-IRES puro
Method: An expression vector, pLVX-IRES puro (Clontech) coding for human EGFR L858R and T790M double mutation, was transfected into HEK293 cells by the Trans-Lentiviral ORF Packaging System (Thermo Scientific), to produce virus encoding EGFR L858R and T790M double mutations. Ba/F3 (DSMZ) cells maintained in RPMI 1640 medium supplemented with 10% fetal bovine serum, 200 μM L-glutamine/l 200 μg/mL penicillin/200 μg/mL streptomycin (Life Technology) and 10 ng/mL IL-3 (R&D system), were infected by EGFR L858R and T790M double mutation virus and subsequently selected by puromycin (Life Technology) selection and IL-3 depletion. […] The anti-proliferative activity of compounds was determined as follows: BaF3-EGFR L858R/T790M cells seeded in 96 well plates (2500 cells/well) were treated with test compound (dissolved in DMSO) at a series of concentrations (4-fold dilution, top concentration: 10,000 nM). The plates were incubated for 72 h in a 37° C. incubator with 5% CO2, and the number of viable cells in each well were measured indirectly by CellTiter 96® Aqueous One Solution Cell Proliferation Assay (Promega; this assay is a colorimetric method for determining the number of viable cells through measurement of their metabolic activity by detection of enzymatic conversion of tetrazolium salts into blue formazan derivatives). Reagent (20 μL) was added into each well, and the plates were returned to the incubator for 2 h. The absorbance in each well was then measured at 490 nm using an Envision plate reader (Perkin Elmer).

[2] = target: T2, human EGFR exon 20 insertion ASV (V769_D770insASV) (Homo sapiens, UniProt P00533, INS769ASV); test: Ba/F3-EGFR-Exon20-ASV cell anti-proliferative assay (CellTiter 96 MTS, 72 h); conditions: Ba/F3-EGFR-Exon20-ASV cells
T2 construct: expressed in transfected cells; host or cells: Ba/F3 (murine pro-B) cells transduced with lentivirus from pLVX-IRES puro
In short: (§1)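 Ba/F3 cells made IL-3-independent by lentiviral EGFR exon 20 NPG or ASV insertion were exposed 72 h at 37 °C to 4-fold dilutions of compound (top 10,000 nM). Viability read by MTS tetrazolium conversion, absorbance 490 nm after 2 h.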

[3] = target: T3, Her2 exon 20 YVMA insertion (A775_G776ins YVMA) (Homo sapiens, UniProt P04626, INS775YVMA); test: Ba/F3-Her2 Exon20 YVMA cell anti-proliferative assay (CellTiter 96 MTS, 72 h); conditions: Ba/F3-Her2 Exon20 YVMA cells
T3 construct: expressed in transfected cells; host or cells: Ba/F3 (murine pro-B) cells transduced with lentivirus from pLVX-IRES puro
In short: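 IL-3-independent Ba/F3 cells transduced with the YVMA insertion were treated with compound in 4-fold dilutions from 10,000 nM top. After 72 h at 37° C, viable cells were quantified by MTS tetrazolium conversion, with absorbance read at 490 nm after 2 h.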

[4] = target: T4, human EGFR exon 20 insertion NPG (H773_V774insNPG) (Homo sapiens, UniProt P00533, INS772GNP); test: Ba/F3-EGFR-Exon20-NPG cell anti-proliferative assay (CellTiter 96 MTS, 72 h); conditions: Ba/F3-EGFR-Exon20-NPG cells
T4 construct: expressed in transfected cells; host or cells: Ba/F3 (murine pro-B) cells transduced with lentivirus from pLVX-IRES puro
In short: as §1

[5] = target: T5, human EGFR E746-A750 deletion and T790M Mutation (Homo sapiens, UniProt P00533, DEL746-750/T790M); test: Ba/F3-EGFR-Del/T790M cell anti-proliferative assay (CellTiter 96 MTS, 72 h); conditions: Ba/F3-EGFR-Del/T790M cells
T5 construct: expressed in transfected cells; host or cells: Ba/F3 (murine pro-B) cells transduced with lentivirus from pLVX-IRES puro
In short: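 Ba/F3 cells made IL-3-independent by lentiviral human EGFR E746-A750 del/T790M, puromycin-selected. Cells treated 72 h at 37 °C with compound, 4-fold dilutions from 10,000 nM top concentration. Viability read by MTS tetrazolium-to-formazan conversion, absorbance at 490 nm after 2 h with reagent.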

T3 sequence (P04626 with tags, fused parts or gaps INS775YVMA): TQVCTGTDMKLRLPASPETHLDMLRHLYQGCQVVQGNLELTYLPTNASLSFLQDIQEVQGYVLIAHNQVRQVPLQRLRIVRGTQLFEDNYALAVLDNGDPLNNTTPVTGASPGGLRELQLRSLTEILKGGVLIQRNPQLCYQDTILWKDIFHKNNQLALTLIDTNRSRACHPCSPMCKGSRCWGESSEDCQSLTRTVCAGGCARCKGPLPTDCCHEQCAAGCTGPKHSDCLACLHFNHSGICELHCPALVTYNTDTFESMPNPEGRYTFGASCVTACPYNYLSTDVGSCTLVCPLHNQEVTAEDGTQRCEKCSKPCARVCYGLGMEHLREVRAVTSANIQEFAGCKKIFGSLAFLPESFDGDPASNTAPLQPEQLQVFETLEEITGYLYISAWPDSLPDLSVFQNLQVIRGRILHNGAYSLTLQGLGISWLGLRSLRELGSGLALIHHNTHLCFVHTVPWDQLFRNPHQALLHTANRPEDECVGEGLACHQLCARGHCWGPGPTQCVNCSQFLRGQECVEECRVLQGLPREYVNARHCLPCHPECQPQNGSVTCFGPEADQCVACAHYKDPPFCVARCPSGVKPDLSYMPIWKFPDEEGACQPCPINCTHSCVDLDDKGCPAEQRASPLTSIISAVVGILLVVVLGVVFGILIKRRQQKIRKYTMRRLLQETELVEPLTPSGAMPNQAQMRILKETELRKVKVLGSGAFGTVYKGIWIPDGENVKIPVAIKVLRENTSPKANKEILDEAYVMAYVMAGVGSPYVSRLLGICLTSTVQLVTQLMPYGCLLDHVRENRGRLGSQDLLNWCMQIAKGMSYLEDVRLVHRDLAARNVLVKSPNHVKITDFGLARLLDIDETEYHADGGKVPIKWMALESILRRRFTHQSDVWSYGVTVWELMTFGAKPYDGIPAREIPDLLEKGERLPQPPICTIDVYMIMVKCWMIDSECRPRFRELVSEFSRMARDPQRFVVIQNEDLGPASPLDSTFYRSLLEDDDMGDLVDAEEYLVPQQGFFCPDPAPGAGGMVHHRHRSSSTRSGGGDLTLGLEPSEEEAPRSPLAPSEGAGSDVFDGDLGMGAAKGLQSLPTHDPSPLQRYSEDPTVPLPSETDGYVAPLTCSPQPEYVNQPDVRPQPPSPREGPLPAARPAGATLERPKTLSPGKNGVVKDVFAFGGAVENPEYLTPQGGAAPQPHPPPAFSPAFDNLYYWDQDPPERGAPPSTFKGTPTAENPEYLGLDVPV
T1 sequence (P00533 25-1210 T790M/L858R): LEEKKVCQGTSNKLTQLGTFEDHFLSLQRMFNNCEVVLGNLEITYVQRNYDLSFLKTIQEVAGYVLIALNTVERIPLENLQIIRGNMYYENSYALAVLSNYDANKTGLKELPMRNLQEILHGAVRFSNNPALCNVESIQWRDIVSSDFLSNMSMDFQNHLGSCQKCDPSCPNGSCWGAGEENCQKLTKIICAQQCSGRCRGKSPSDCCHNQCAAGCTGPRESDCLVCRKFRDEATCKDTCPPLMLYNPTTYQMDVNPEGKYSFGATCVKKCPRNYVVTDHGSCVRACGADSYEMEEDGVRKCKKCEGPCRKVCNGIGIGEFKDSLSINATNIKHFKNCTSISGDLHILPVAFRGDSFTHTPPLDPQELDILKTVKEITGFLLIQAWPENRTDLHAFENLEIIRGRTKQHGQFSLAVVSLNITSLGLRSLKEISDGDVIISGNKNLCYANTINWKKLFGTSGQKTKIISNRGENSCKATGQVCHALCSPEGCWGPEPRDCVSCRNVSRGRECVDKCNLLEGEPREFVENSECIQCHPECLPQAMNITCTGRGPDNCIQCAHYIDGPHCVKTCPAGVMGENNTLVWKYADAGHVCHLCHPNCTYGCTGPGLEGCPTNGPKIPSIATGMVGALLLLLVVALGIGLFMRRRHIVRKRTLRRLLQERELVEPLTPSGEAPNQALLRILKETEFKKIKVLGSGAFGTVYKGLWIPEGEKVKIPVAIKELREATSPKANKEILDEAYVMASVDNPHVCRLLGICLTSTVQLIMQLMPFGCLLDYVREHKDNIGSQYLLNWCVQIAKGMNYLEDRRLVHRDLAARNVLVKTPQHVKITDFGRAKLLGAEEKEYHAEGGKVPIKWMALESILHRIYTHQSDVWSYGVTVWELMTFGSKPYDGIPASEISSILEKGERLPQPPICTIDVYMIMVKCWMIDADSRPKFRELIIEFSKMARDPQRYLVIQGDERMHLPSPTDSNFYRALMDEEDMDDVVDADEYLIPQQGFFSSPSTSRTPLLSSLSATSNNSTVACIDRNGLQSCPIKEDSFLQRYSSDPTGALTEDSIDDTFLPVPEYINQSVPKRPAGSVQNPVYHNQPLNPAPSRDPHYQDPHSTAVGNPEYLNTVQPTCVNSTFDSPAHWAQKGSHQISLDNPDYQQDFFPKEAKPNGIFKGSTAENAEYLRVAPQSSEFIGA
T4 sequence (P00533 with tags, fused parts or gaps INS772GNP): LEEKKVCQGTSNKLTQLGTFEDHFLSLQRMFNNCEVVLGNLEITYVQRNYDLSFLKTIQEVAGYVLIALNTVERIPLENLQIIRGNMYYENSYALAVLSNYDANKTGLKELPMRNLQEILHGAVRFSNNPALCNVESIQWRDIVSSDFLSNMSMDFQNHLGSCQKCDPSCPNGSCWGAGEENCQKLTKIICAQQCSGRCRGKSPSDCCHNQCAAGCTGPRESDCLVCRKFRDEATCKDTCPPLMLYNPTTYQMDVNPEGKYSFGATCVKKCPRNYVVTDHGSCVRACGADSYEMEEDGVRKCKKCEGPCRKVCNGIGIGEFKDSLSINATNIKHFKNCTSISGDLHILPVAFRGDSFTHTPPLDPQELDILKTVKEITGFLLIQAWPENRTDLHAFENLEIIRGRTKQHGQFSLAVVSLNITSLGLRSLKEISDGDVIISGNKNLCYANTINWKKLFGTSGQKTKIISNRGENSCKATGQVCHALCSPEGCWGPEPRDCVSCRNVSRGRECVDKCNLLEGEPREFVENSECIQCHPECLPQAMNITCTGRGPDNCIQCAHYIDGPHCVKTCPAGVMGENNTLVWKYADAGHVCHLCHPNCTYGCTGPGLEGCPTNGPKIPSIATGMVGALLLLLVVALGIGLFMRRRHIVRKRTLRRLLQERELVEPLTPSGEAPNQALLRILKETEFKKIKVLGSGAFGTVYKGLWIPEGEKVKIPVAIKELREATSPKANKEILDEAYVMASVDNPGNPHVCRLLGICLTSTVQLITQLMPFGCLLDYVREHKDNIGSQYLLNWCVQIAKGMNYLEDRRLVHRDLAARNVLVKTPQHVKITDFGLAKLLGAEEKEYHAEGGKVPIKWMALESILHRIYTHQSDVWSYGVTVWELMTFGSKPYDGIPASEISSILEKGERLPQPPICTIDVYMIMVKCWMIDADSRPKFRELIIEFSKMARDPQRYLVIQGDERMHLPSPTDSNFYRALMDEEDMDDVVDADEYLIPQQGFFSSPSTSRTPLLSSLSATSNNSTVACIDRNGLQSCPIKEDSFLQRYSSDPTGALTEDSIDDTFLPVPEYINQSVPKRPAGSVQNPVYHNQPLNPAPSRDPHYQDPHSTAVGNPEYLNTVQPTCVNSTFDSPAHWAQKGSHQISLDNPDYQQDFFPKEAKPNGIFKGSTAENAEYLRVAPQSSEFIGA
T5 sequence (P00533 with tags, fused parts or gaps DEL746-750/T790M): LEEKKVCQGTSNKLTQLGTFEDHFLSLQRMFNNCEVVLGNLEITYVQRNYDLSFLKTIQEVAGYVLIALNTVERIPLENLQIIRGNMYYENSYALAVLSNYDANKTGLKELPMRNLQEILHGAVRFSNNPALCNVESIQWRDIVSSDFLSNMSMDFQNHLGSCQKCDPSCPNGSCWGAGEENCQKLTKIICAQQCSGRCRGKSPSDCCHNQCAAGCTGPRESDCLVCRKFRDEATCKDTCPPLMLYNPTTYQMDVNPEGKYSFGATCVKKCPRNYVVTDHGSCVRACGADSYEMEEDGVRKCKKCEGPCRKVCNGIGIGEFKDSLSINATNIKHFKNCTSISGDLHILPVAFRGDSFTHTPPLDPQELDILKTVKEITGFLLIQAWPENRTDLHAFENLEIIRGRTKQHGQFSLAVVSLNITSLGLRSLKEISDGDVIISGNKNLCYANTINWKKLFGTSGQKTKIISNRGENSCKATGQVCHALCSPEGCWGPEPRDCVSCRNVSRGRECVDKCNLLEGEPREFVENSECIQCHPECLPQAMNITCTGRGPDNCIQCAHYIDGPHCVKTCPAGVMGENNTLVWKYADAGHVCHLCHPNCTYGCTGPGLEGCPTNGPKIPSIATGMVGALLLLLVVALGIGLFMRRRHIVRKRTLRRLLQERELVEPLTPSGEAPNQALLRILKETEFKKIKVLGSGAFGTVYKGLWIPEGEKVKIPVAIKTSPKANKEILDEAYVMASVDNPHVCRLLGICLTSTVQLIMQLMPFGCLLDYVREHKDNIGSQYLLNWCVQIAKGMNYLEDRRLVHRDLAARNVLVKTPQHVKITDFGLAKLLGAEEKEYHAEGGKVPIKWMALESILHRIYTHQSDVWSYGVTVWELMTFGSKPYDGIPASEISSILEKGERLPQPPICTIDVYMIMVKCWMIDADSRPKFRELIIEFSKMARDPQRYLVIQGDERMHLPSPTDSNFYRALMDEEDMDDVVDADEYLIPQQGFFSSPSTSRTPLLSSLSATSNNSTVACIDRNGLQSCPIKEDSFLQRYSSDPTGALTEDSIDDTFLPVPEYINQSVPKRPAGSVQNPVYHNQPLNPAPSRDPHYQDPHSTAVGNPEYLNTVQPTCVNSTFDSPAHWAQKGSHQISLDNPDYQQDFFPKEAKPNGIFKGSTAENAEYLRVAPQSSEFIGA

Compound	IC50 [2] [nM]	IC50 [3] [nM]	IC50 [4] [nM]	EGFR exon 21 L858R and exon 20 T790M mutation IC50 [1]	EGFR exon 19 deletion and exon 20 T790M mutation IC50 [5]
C=CC(=O)Nc1cc(Nc2ncc(CCC(N)=O)c(-c3cn4c5c(cccc35)CCC4)n2)c(OC)cc1N(C)CCN(C)C [Example 40, N-(5-((5-(3-amino-3-oxopropyl)-4-(5,6-dihydro-4H-pyrrolo[3,2,1-ij]quinolin-1-yl)pyrimidin-2-yl)amino)-2-((2-(dimethylamino)ethyl)(methyl)amino)-4-methoxyphenyl)acrylamide]	500 to 1000	> 1000	100 to 500	B (IC50 value for the indicated mutant between about 100 to about 500 nM)	A (IC50 value for the indicated mutant below about 100 nM)
C=CC(=O)Nc1cc(Nc2ncc(CCC(C)(C)O)c(-c3cn4c5c(cccc35)CCC4)n2)c(OC)cc1N(C)CCN(C)C [Example 37, N-(5-((4-(5,6-dihydro-4H-pyrrolo[3,2,1-ij]quinolin-1-yl)-5-(3-hydroxy-3-methylbutyl)pyrimidin-2-yl)amino)-2-((2-(dimethylamino)ethyl)(methyl)amino)-4-methoxyphenyl)acrylamide]	< 100	100 to 500	< 100	B (IC50 value for the indicated mutant between about 100 to about 500 nM)	A (IC50 value for the indicated mutant below about 100 nM)
C=CC(=O)Nc1cc(Nc2nccc(-c3cn4c5c(cccc35)CCC4)n2)c(OC)cc1N(C)CCN(C)C [Example 10, N-(5-((4-(5,6-dihydro-4H-pyrrolo[3,2,1-ij]quinolin-1-yl)pyrimidin-2-yl)amino)-2-((2-(dimethylamino)ethyl)(methyl)amino)-4-methoxyphenyl)acrylamide]	100 to 500	100 to 500	< 100	A (IC50 value for the indicated mutant below about 100 nM)	A (IC50 value for the indicated mutant below about 100 nM)
C=CC(=O)Nc1cc(Nc2ncc(CC)c(-c3cn4c5c(cccc35)OCC4)n2)c(OC)cc1N(C)CCN(C)C [Example 1, N-(5-((4-(2,3-dihydro-[1,4]oxazino[2,3,4-hi]indol-6-yl)-5-ethylpyrimidin-2-yl)amino)-2-((2-(dimethylamino)ethyl)(methyl)amino)-4-methoxyphenyl)acrylamide]	< 100	100 to 500	< 100	A (IC50 value for the indicated mutant below about 100 nM)	A (IC50 value for the indicated mutant below about 100 nM)
C=CC(=O)Nc1cc(Nc2ncc(C(=O)NCCOC)c(-c3cn4c5c(cccc35)CCC4)n2)c(OC)cc1N(C)CCN(C)C [Example 47, 2-((5-acrylamido-4-((2-(dimethylamino)ethyl)(methyl)amino)-2-methoxyphenyl)amino)-4-(5,6-dihydro-4H-pyrrolo[3,2,1-ij]quinolin--yl)-N-(2-methoxyethyl)pyrimidine-5-carboxamide]	100 to 500	500 to 1000	< 100	C (IC50 value for the indicated mutant between greater than about 500 to about 1 μM)	B (IC50 value for the indicated mutant between about 100 to about 500 nM)
C=CC(=O)Nc1cc(Nc2ncc(C=C)c(-c3cn4c5c(cccc35)CCC4)n2)c(OC)cc1N(C)CCN(C)C [Example 27, N-(5-((4-(5,6-dihydro-4H-pyrrolo[3,2,1-ij]quinolin-1-yl)-5-vinylpyrimidin-2-yl)amino)-2-((2-(dimethylamino)ethyl)(methyl)amino)-4-methoxyphenyl)acrylamide]	< 100	< 100	< 100	A (IC50 value for the indicated mutant below about 100 nM)	A (IC50 value for the indicated mutant below about 100 nM)
C=CC(=O)Nc1cc(Nc2ncc(CCC(O)CC)c(-c3cn4c5c(cccc35)CCC4)n2)c(OC)cc1N(C)CCN(C)C (centres unmarked) [Example 38, N-(5-((4-(5,6-dihydro-4H-pyrrolo[3,2,1-ij]quinolin-1-yl)-5-(3-hydroxypentyl)pyrimidin-2-yl)amino)-2-((2-(dimethylamino)ethyl)(methyl)amino)-4-methoxyphenyl)acrylamide]	< 100	< 100	< 100	A (IC50 value for the indicated mutant below about 100 nM)	A (IC50 value for the indicated mutant below about 100 nM)

Continued, in another order:

IC50 [2] [nM]	IC50 [3] [nM]	IC50 [4] [nM]	Compound	EGFR exon 21 L858R and exon 20 T790M mutation IC50 [1]	EGFR exon 19 deletion and exon 20 T790M mutation IC50 [5]
100 to 500	100 to 500	< 100	C=CC(=O)Nc1cc(Nc2nccc(-c3cn4c5c(cccc35)CCC4)n2)c(OC)cc1N(C)CCNC [Example 83, N-(5-((4-(5,6-dihydro-4H-pyrrolo[3,2,1-ij]quinolin-1-yl)pyrimidin-2-yl)amino)-4-methoxy-2-(methyl(2-(methylamino)ethyl)amino)phenyl)acrylamide]	A (IC50 value for the indicated mutant below about 100 nM)	A (IC50 value for the indicated mutant below about 100 nM)
500 to 1000	> 1000	< 100	C=CC(=O)Nc1cc(Nc2ncc(C(=O)NCCO)c(-c3cn4c5c(cccc35)CCC4)n2)c(OC)cc1N(C)CCN(C)C [Example 48]	C (IC50 value for the indicated mutant between greater than about 500 to about 1 μM)	B (IC50 value for the indicated mutant between about 100 to about 500 nM)
< 100	100 to 500	< 100	C=CC(=O)Nc1cc(Nc2ncc(Cl)c(-c3cn4c5c(cccc35)OCC4)n2)c(OC)cc1N(C)CCN(C)C [Example 76, N-(5-((5-chloro-4-(2,3-dihydro-[1,4]oxazino[2,3,4-hi]indol-6-yl)pyrimidin-2-yl)amino)-2-((2-(dimethylamino)ethyl)(methyl)amino)-4-methoxyphenyl)acrylamide]	A (IC50 value for the indicated mutant below about 100 nM)	A (IC50 value for the indicated mutant below about 100 nM)
< 100	< 100	< 100	C=CC(=O)Nc1cc(Nc2ncc(-c3nnc(C)o3)c(-c3cn4c5c(cccc35)CCC4)n2)c(OC)cc1N(C)CCN(C)C [Example 107]	A (IC50 value for the indicated mutant below about 100 nM)	A (IC50 value for the indicated mutant below about 100 nM)
100 to 500	500 to 1000	100 to 500	C=CC(=O)Nc1cc(Nc2nccc(-c3cn4c5c(cccc35)OCC4)n2)c(OC)cc1N(C)CCNC [Example 105, N-(5-((4-(2,3-dihydro-[1,4]oxazino[2,3,4-hi]indol-6-yl)pyrimidin-2-yl)amino)-4-methoxy-2-(methyl(2-(methylamino)ethyl)amino)phenyl)acrylamide]	C (IC50 value for the indicated mutant between greater than about 500 to about 1 μM)	A (IC50 value for the indicated mutant below about 100 nM)
> 1000	> 1000	> 1000	C=CC(=O)Nc1cc(Nc2ncc(CCP(C)(C)=O)c(-c3cn4c5c(cccc35)CCC4)n2)c(OC)cc1N(C)CCN(C)C [Example 96]	D (IC50 value for the indicated mutant greater than about 1 μM)	D (IC50 value for the indicated mutant greater than about 1 μM)
